Experimental data taken from patent US7022667B2, “O-derivatized nocathiacin derivatives” (Bristol-Myers Squibb Company, priority 2002, dated 2006).
Values after ≈ are worked out from the molar mass of the structure shown.

Legend:
Assay in all cases: MIC, broth micro dilution assay (NCCLS)
Type in all cases: cell-based
[1] = test system: Enterococcus faecalis A20688; details: Mueller-Hinton medium, 35° C., 18 hours
Description: (§1) The serial broth dilution method used Mueller-Hinton medium except for the Streptococcus pneumoniae which was tested in 50% Mueller-Hinton medium and 50% Todd Hewitt medium. The final bacterial inoculate contained approximately 5×10^5 cfu/well and was run on microtiter plates. The volume of each well was 100 μL and the plates were incubated at 35° C. for 18 hours in ambient air. The MIC was defined as the lowest drug concentration that prevented visible growth.

[2] = test system: Staphylococcus aureus A15090; details: Mueller-Hinton medium, 35° C., 18 hours
Description: as §1

[3] = test system: Streptococcus pneumoniae A28272; details: 50% Mueller-Hinton medium and 50% Todd Hewitt medium, 35° C., 18 hours
Description: as §1

SMILES	MIC (μg/mL) Enterococcus faecalis A20688 [1] [µg/mL]	MIC (μg/mL) Staphylococcus aureus A15090 [2] [µg/mL]	MIC (μg/mL) Streptococcus pneumoniae A28272 [3] [µg/mL]
C=C(NC(=O)c1csc(-c2nc3c(cc2O)-c2nc(cs2)C(=O)NC(C(C)O)C(=O)NC(=C(C)OC)c2nc(cs2)C(=O)NC2c4nc(cs4)C(=O)NC(COC(=O)c4c5c6c(cccc6n4OCOP(=O)(O)O)COC(=O)C(OC4CC(C)(O)C(N(C)C)C(C)O4)C2OC5)c2nc-3cs2)n1)C(N)=O (stereo not drawn) [Example 12]	1.0 (≈ 0.646 µM)	0.25 (≈ 0.162 µM)	0.015 (≈ 0.00969 µM)
C=C(NC(=O)c1csc(-c2nc3c(cc2OCC(=O)O)-c2nc(cs2)C(=O)NC(C(C)O)C(=O)NC(=C(C)OC)c2nc(cs2)C(=O)NC2c4nc(cs4)C(=O)NC(COC(=O)c4c5c6c(cccc6n4OCC(=O)O)COC(=O)C(OC4CC(C)(O)C(N(C)C)C(C)O4)C2OC5)c2nc-3cs2)n1)C(N)=O.O=C(O)C(F)(F)F (stereo not drawn) [Example 20]	>128	16	0.5
C=C(NC(=O)c1csc(-c2nc3c(cc2O)-c2nc(cs2)C(=O)NC(C(C)O)C(=O)NC(=C(C)OC)c2nc(cs2)C(=O)NC2c4nc(cs4)C(=O)NC(COC(=O)c4c5c6c(cccc6n4OCC4OC6OC(C)(C)OC6C6OC(C)(C)OC46)COC(=O)C(OC4CC(C)(O)C(N(C)C)C(C)O4)C2OC5)c2nc-3cs2)n1)C(N)=O (stereo not drawn) [Example 38]	0.03 (≈ 0.0179 µM)	0.125 (≈ 0.0744 µM)	0.001 (≈ 0.000595 µM)
C=C(NC(=O)c1csc(-c2nc3c(cc2O)-c2nc(cs2)C(=O)NC(C(C)O)C(=O)NC(=C(C)OC)c2nc(cs2)C(=O)NC2c4nc(cs4)C(=O)NC(COC(=O)c4c5c6c(cccc6n4OCCCNS(=O)(=O)c4cn(C)cn4)COC(=O)C(OC4CC(C)(O)C(N(C)C)C(C)O4)C2OC5)c2nc-3cs2)n1)C(N)=O (stereo not drawn) [Example 47]	0.25 (≈ 0.153 µM)	0.06 (≈ 0.0366 µM)	0.015 (≈ 0.00915 µM)
C=C(NC(=O)c1csc(-c2nc3c(cc2O)-c2nc(cs2)C(=O)NC(C(C)O)C(=O)NC(=C(C)OC)c2nc(cs2)C(=O)NC2c4nc(cs4)C(=O)NC(COC(=O)c4c5c6c(cccc6n4OCc4ccc(C(=O)OC6CCCCO6)cc4)COC(=O)C(OC4CC(C)(O)C(N(C)C)C(C)O4)C2OC5)c2nc-3cs2)n1)C(N)=O (stereo not drawn) [Example 10]	0.5 (≈ 0.302 µM)	0.5 (≈ 0.302 µM)	0.015 (≈ 0.00906 µM)
C=C(NC(=O)c1csc(-c2nc3c(cc2O)-c2nc(cs2)C(=O)NC(C(C)O)C(=O)NC(=C(C)OC)c2nc(cs2)C(=O)NC2c4nc(cs4)C(=O)NC(COC(=O)c4c5c6c(cccc6n4OCCCN4CCN(C)CC4)COC(=O)C(OC4CC(C)(O)C(N(C)C)C(C)O4)C2OC5)c2nc-3cs2)n1)C(N)=O (stereo not drawn) [Example 50]	1.0 (≈ 0.634 µM)	1.0 (≈ 0.634 µM)	0.03 (≈ 0.019 µM)
C=C(NC(=O)c1csc(-c2nc3c(cc2OC)-c2nc(cs2)C(=O)NC(C(C)O)C(=O)NC(=C(C)OC)c2nc(cs2)C(=O)NC2c4nc(cs4)C(=O)NC(COC(=O)c4c5c6c(cccc6n4OC)COC(=O)C(OC4CC(C)(O)C(N(C)C)C(C)O4)C2OC5)c2nc-3cs2)n1)C(N)=O (stereo not drawn) [Example 18]	0.015 (≈ 0.0102 µM)	0.007 (≈ 0.00478 µM)	0.001 (≈ 0.000682 µM)
C=C(NC(=O)c1csc(-c2nc3c(cc2O)-c2nc(cs2)C(=O)NC(C(C)O)C(=O)NC(=C(C)OC)c2nc(cs2)C(=O)NC2c4nc(cs4)C(=O)NC(COC(=O)c4c5c6c(cccc6n4OC(=O)NCCCN4CCN(C)CC4)COC(=O)C(OC4CC(C)(O)C(N(C)C)C(C)O4)C2OC5)c2nc-3cs2)n1)C(N)=O (stereo not drawn) [Example 16]	0.003 (≈ 0.00185 µM)	0.003 (≈ 0.00185 µM)	0.0005 (≈ 0.000308 µM)
COC(C)=C1NC(=O)C(C(C)O)NC(=O)c2csc(n2)-c2cc(O)c(-c3nc(C(N)=O)cs3)nc2-c2csc(n2)C2COC(=O)c3c4c5c(cccc5n3OCCCS(=O)(=O)O)COC(=O)C(OC3CC(C)(O)C(N(C)C)C(C)O3)C(OC4)C(NC(=O)c3csc1n3)c1nc(cs1)C(=O)N2 (stereo not drawn) [Example 53]	1.0 (≈ 0.671 µM)	0.25 (≈ 0.168 µM)	0.125 (≈ 0.0839 µM)

Next, values leading:

MIC (μg/mL) Enterococcus faecalis A20688 [1] [µg/mL]	MIC (μg/mL) Staphylococcus aureus A15090 [2] [µg/mL]	MIC (μg/mL) Streptococcus pneumoniae A28272 [3] [µg/mL]	SMILES
1.0 (≈ 0.633 µM)	1.0 (≈ 0.633 µM)	0.03 (≈ 0.019 µM)	C=C(NC(=O)c1csc(-c2nc3c(cc2OP(=O)(O)OCCCl)-c2nc(cs2)C(=O)NC(C(C)O)C(=O)NC(=C(C)OC)c2nc(cs2)C(=O)NC2c4nc(cs4)C(=O)NC(COC(=O)c4c5c6c(cccc6n4O)COC(=O)C(OC4CC(C)(O)C(N(C)C)C(C)O4)C2OC5)c2nc-3cs2)n1)C(N)=O (stereo not drawn) [Example 35]
4.0 (≈ 2.44 µM)	4.0 (≈ 2.44 µM)	0.06 (≈ 0.0365 µM)	C=C(NC(=O)c1csc(-c2nc3c(cc2OCC(=O)OCCO)-c2nc(cs2)C(=O)NC(C(C)O)C(=O)NC(=C(C)OC)c2nc(cs2)C(=O)NC2c4nc(cs4)C(=O)NC(COC(=O)c4c5c6c(cccc6n4OCC(=O)OCCO)COC(=O)C(OC4CC(C)(O)C(N(C)C)C(C)O4)C2OC5)c2nc-3cs2)n1)C(N)=O (stereo not drawn) [Example 72]
0.25 (≈ 0.15 µM)	1.0 (≈ 0.601 µM)	0.03 (≈ 0.018 µM)	C=C(NC(=O)c1csc(-c2nc3c(cc2OCCN2CCOCC2)-c2nc(cs2)C(=O)NC(C(C)O)C(=O)NC(=C(C)OC)c2nc(cs2)C(=O)NC2c4nc(cs4)C(=O)NC(COC(=O)c4c5c6c(cccc6n4OCCN4CCOCC4)COC(=O)C(OC4CC(C)(O)C(N(C)C)C(C)O4)C2OC5)c2nc-3cs2)n1)C(N)=O (stereo not drawn) [Example 26]
1.0 (≈ 0.617 µM)	1.0 (≈ 0.617 µM)	0.015 (≈ 0.00926 µM)	C=C(NC(=O)c1csc(-c2nc3c(cc2OC(=O)c2ccc(Br)cc2)-c2nc(cs2)C(=O)NC(C(C)O)C(=O)NC(=C(C)OC)c2nc(cs2)C(=O)NC2c4nc(cs4)C(=O)NC(COC(=O)c4c5c6c(cccc6n4O)COC(=O)C(OC4CC(C)(O)C(N(C)C)C(C)O4)C2OC5)c2nc-3cs2)n1)C(N)=O (stereo not drawn) [Example 32]
1.0 (≈ 0.589 µM)	0.25 (≈ 0.147 µM)	0.125 (≈ 0.0736 µM)	C=C(NC(=O)c1csc(-c2nc3c(cc2OP(=O)(OCc2ccccc2)OCc2ccccc2)-c2nc(cs2)C(=O)NC(C(C)O)C(=O)NC(=C(C)OC)c2nc(cs2)C(=O)NC2c4nc(cs4)C(=O)NC(COC(=O)c4c5c6c(cccc6n4O)COC(=O)C(OC4CC(C)(O)C(N(C)C)C(C)O4)C2OC5)c2nc-3cs2)n1)C(N)=O (stereo not drawn) [Example 34]
0.25 (≈ 0.165 µM)	0.06 (≈ 0.0395 µM)	0.0005 (≈ 0.000329 µM)	C=CCOc1cc2c(nc1-c1nc(C(=O)NC(=C)C(N)=O)cs1)-c1csc(n1)C1COC(=O)c3c4c5c(cccc5n3OCC=C)COC(=O)C(OC3CC(C)(O)C(N(C)C)C(C)O3)C(OC4)C(NC(=O)c3csc(n3)C(=C(C)OC)NC(=O)C(C(C)O)NC(=O)c3csc-2n3)c2nc(cs2)C(=O)N1 (stereo not drawn) [Example 74]
16 (≈ 9.85 µM)	64 (≈ 39.4 µM)	0.06 (≈ 0.0369 µM)	C=C(NC(=O)c1csc(-c2nc3c(cc2OCC(N)=O)-c2nc(cs2)C(=O)NC(C(C)O)C(=O)NC(=C(C)OC)c2nc(cs2)C(=O)NC2c4nc(cs4)C(=O)NC(COC(=O)c4c5c6c(cccc6n4OCOCC[Si](C)(C)C)COC(=O)C(OC4CC(C)(O)C(N(C)C)C(C)O4)C2OC5)c2nc-3cs2)n1)C(N)=O (stereo not drawn) [Example 78]
0.25 (≈ 0.169 µM)	0.25 (≈ 0.169 µM)	0.007 (≈ 0.00472 µM)	C=C(NC(=O)c1csc(-c2nc3c(cc2O)-c2nc(cs2)C(=O)NC(C(C)O)C(=O)NC(=C(C)OC)c2nc(cs2)C(=O)NC2c4nc(cs4)C(=O)NC(COC(=O)c4c5c6c(cccc6n4OCCO)COC(=O)C(OC4CC(C)(O)C(N(C)C)C(C)O4)C2OC5)c2nc-3cs2)n1)C(N)=O (stereo not drawn) [Example 36]
0.015	0.03	0.03	C=C(NC(=O)c1csc(-c2nc3c(cc2OC(C)=O)-c2nc(cs2)C(=O)NC(C(C)O)C(=O)NC(=C(C)OC)c2nc(cs2)C(=O)NC2c4nc(cs4)C(=O)NC(COC(=O)c4c5c6c(cccc6n4O)COC(=O)C(OC4CC(C)(O)C(N(C)C)C(C)O4)C2OC5)c2nc-3cs2)n1)C(N)=O.Cl (stereo not drawn) [Example 24]
0.125	1.0	0.06	C=C(NC(=O)c1csc(-c2nc3c(cc2O)-c2nc(cs2)C(=O)NC(C(C)O)C(=O)NC(=C(C)OC)c2nc(cs2)C(=O)NC2c4nc(cs4)C(=O)NC(COC(=O)c4c5c6c(cccc6n4OS(=O)(=O)[O-])COC(=O)C(OC4CC(C)(O)C(N(C)C)C(C)O4)C2OC5)c2nc-3cs2)n1)C(N)=O.[Na+] (stereo not drawn) [Example 64]
0.25 (≈ 0.155 µM)	2.0 (≈ 1.24 µM)	0.001 (≈ 0.000618 µM)	C=C(NC(=O)c1csc(-c2nc3c(cc2OCc2ccccc2)-c2nc(cs2)C(=O)NC(C(C)O)C(=O)NC(=C(C)OC)c2nc(cs2)C(=O)NC2c4nc(cs4)C(=O)NC(COC(=O)c4c5c6c(cccc6n4OCc4ccccc4)COC(=O)C(OC4CC(C)(O)C(N(C)C)C(C)O4)C2OC5)c2nc-3cs2)n1)C(N)=O (stereo not drawn) [Example 66]
